Key:
[1] = tested on: Hh pathway (Gli-responsive firefly luciferase reporter in Shh-LIGHT2 cells); assay: Shh-LIGHT2 assay for Hh pathway activity; type: cell-based; details: 10% Shh-conditioned medium, 24 hours, firefly/Renilla luciferase ratio
Procedure: Shh-N-conditioned medium was prepared as described by Chen et al., Proc. Natl. Acad. Sci. U.S.A. 99, 14071 (2002). Shh-LIGHT2 cells [J. Taipale et al., Nature 406, 1005 (2000)], an NIH-3T3-based cell line containing a stably integrated Gli-responsive firefly luciferase reporter and a constitutive thymidine kinase promoter-driven Renilla luciferase expression construct (pRLTK, Promega), were cultured in DMEM containing 10% calf serum. 100 U/mL penicillin, and 0.1 mg/mL streptomycin. The cells were seeded into 96-well plates at a density of 30,000 cells/well, and the following day they were treated with individual compounds or DMSO in DMEM containing 0.5% calf serum, 10% Shh-conditioned medium, and the antibiotics described above. After being cultured for another 24 hours, the cells were lysed and their firefly and Renilla luciferase activities were determined using, a dual luciferase reporter kit (Promega) and a microplate luminometer (Veritas). Average values representing the firefly luciferase/Renilla luciferase ratio from triplicate samples were used to construct dose response profiles for each compound. Dose-response data from three separate experiments were independently curve-fitted with a variable slope, sigmoidal dose-response algorithm using Prism software, and the resulting IC50 values were used to generate an average IC50 for each compound.

[2] = tested on: primary cilia of Shh-EGFP cells; assay: Quantitative assessment of ciliogenesis (Arl13b staining, cilia size); type: cell-based; details: 24 hours, read-out: Primary cilia size (percent of DMSO control at a 30 μM dose)
Procedure: Shh-EGFP cells [J. Hyman et al., Proc. Natl. Acad. Sci. U.S.A., (2009)], an NIH-3T3-based cell line containing a stably integrated Gli-responsive enhanced green fluorescent protein reporter, were maintained in DMEM containing 10% calf serum, 100 U/mL penicillin, and 0.1 mg/mL streptomycin. The cells were seeded into 24-well plates containing poly-D-lysine-coated 12-mm glass coverslips at a density of 30,000 cells/well and cultured for 36 hours. The cells were transferred into DMEM containing 0.5% calf serum, the antibiotics described above, and either individual compounds at a 30 μM concentration or 0.3% DMSO. After being cultured for another 24 hours, the cells were fixed in PBS containing 4% paraformaldehyde for 10 minutes at room temperature, washed 3×5 minutes with PBS, permeabilized with PBS containing 0.3% Triton X-100 for 5 minutes, and blocked overnight at 4° C. with PBS containing 5% normal goat serum, 0.1% Triton X-100, and 0.05% sodium azide. The coverslips were then incubated for 90 minutes at room temperature with blocking buffer containing rabbit polyclonal anti-Arl 13b antibody (1:3000 dilution), washed 4×5 minutes with PBS containing 0.1% Triton X-100, and incubated for 60 minutes with blocking buffer containing Alexa Fluor 488-conjugated goat polyclonal anti-rabbit IgG antibody (1:300 dilution; Invitrogen, A-11034). Following this secondary antibody incubation, nuclei were stained by incubating the cells 2×10 minutes with PBS containing 0.1% Triton X-100 and […] 4′,6-diamidino-2-phenylindole (DAPI) and washing them 2×5 minutes with PBS. The coverslips were subsequently mounted onto slides using Prolong Gold Antifade Reagent (Invitrogen) and imaged using an HC Plan Apochromat CS 20×/0.70 NA oil immersion objective on a Leica DMI6000B compound microscope equipped with a Photometric CoolSNAP HQ CCD camera and Metamorph software (Molecular Devices). Images of Arl13b staining in DMSO-treated cells were manually examined to establish a minimum threshold value for cilia staining intensity. ImageJ software was then used to define objects consisting of two or more adjacent pixels with a signal intensity equal to or greater than this threshold value, and the total object area within an individual image was used to estimate the total pixel area of primary cilia. Corresponding images of DAPI staining were processed in parallel using CellProfiler software to establish the number of nuclei per image. The average cilia size per cell within an individual image was then determined by dividing the total ciliary pixel area by the number of nuclei. Ten individual images, each containing approximately 150 cells. were used to quantify the average cilia size for each experimental condition.
Shh-EGFP cells, an NIH-3T3-based cell line containing a stably integrated Gli-responsive enhanced green fluorescent protein reporter, were maintained in DMEM containing 10% (v/v) calf serum, 100 U/mL penicillin, and 0.1 mg/mL streptomycin. The cells were seeded into 24-well plates containing poly-D-lysine-coated 12-mm glass coverslips at a density of 30,000 cells/well and cultured for 36 hours. The cells were transferred into DMEM containing 0.5% (v/v) calf serum, the antibiotics described above, and either individual dihydroquinazolinones at a 30 μM concentration or an equivalent amount of DMSO vehicle (0.3%, v/v). After being cultured for another 24 hours, the cells were fixed in PBS containing 4% (w/v) paraformaldehyde for 10 min at room temperature, washed 3×5 min with PBS, permeabilized with PBS containing 0.3% (v/v) Triton X-100 for 5 min, and blocked overnight at 4° C. with PBS containing 5% (v/v) normal goat serum, 0.1% (v/v) Triton X-100, and 0.05% (w/v) sodium azide. […]

[3] = tested on: Gli3 processing in Shh-EGFP cells; assay: Quantitative assessment of Hh ligand-dependent Gli3 processing; type: cell-based; details: Shh-EGFP cells stimulated with Shh-N, 16 hours
Procedure: Shh-EGFP cells were seeded into 12-well plate at a density of 120,000 cells/well in DMEM containing 10% calf serum. 100 U/mL penicillin, and 0.1 mg/mL streptomycin. After being cultured for 24 hours, the cells were transferred into DMEM containing 0.5% calf serum, 10% Shh-conditioned medium, the antibiotics described above, and either individual compounds or DMSO. The cells were cultured for an additional 16 hours, washed with PBS, and then lysed by incubation on ice with SDS-PAGE loading buffer composed of 8% glycerol, 20 mM Tris-HCl, pH 6.8, 2% SDS, 100 mM DTT, 1 mM PMSF, 20 mM NaF, 2 mM Na3VO4, and an EDTA-free protease inhibitor cocktail (Roche). The lysed samples were heated to 100° C. for 7 minutes, loaded onto 3-8% Criterion XT Tris-Acetate polyacrylamide gels (Bio-Rad), electrophoresed in XT Tricine buffer (Bio-Rad), and transferred onto PVDF membranes. The membranes were dehydrated with methanol and probed overnight at 4° C. with goat polyclonal anti-Gli3 antibody (0.4 μg/mL: R & D Systems, AF3690) in PBS containing 4% non-fat dry milk and 0.1% Tween-20 (immunoblot blocking buffer). The blots were then washed 4×1 minutes in PBS and incubated with horseradish peroxidase-conjugated bovine polyclonal anti-goat IgG antibody (0.04 μg/mL, Jackson ImmunoResearch, 805-035-180) in immunoblot blocking buffer for 1 hour at room temperature. The membranes were next washed 4×1 minutes in PBS and visualized using SuperSignal West Dura Extended Duration substrate (Thermo Scientific) and a ChemiDoc XRS imaging system (Bio-Rad). Band intensities of Gli3FL and Gli3R where quantified using Quantity One software (Bio-Rad), and five independent experiments were used to determine the average Gli3FL/Gli3R ratio for each compound.

[4] = tested on: medulloblastoma; details: human patient; cited from earlier work
[5] = tested on: basal cell carcinoma; details: 33 human patients; cited from earlier work

Row | Compound | IC50 [1] [µM] | other results
1 | N#C/C(C(=O)c1ccc(Br)cc1)=C1\NC(=O)c2ccccc2N1 [Example 3] | 5 | –
2 | N#C/C(C(=O)c1ccc(I)cc1)=C1\NC(=O)c2ccccc2N1 [Example 4] | 4.5 | –
3 | Cc1ccc(C(=O)/C(C#N)=C2/NC(=O)c3ccccc3N2)cc1 [Example 5] | 15 | –
4 | CC(C)Cc1ccc(C(=O)/C(C#N)=C2/NC(=O)c3ccccc3N2)cc1 [Example 6] | 6.5 | –
5 | COc1ccc(C(=O)/C(C#N)=C2/NC(=O)c3ccccc3N2)cc1 [Example 8] | 30 | –
6 | N#C/C(C(=O)c1ccc([N+](=O)[O-])cc1)=C1\NC(=O)c2ccccc2N1 [Example 9] | 25 | –
7 | N#C/C(C(=O)c1ccccc1Cl)=C1\NC(=O)c2ccccc2N1 [Example 10, 3-(2-chlorophenyl)-3-oxo-2-(4-oxo-3,4-dihydroquinazolin-2(1H)-ylidene)propanenitrile] | 25 | activity at 30 µM [2]: 93%
8 | N#C/C(C(=O)c1ccccc1F)=C1\NC(=O)c2ccccc2N1 [Example 11] | 30 | –
9 | N#C/C(C(=O)c1ccccc1Br)=C1\NC(=O)c2ccccc2N1 [Example 12] | 15 | –
10 | N#C/C(C(=O)c1ccccc1I)=C1\NC(=O)c2ccccc2N1 [Example 13] | 20 | –
11 | Cc1ccccc1C(=O)/C(C#N)=C1/NC(=O)c2ccccc2N1 [Example 14] | 30 | –
12 | COc1ccccc1C(=O)/C(C#N)=C1/NC(=O)c2ccccc2N1 [Example 15] | > 30 | –
13 | N#C/C(C(=O)c1cccc(Cl)c1)=C1\NC(=O)c2ccccc2N1 [Example 17, 3-(3-chlorophenyl)-3-oxo-2-(4-oxo-3,4-dihydroquinazolin-2 (1H)-ylidene)propanenitrile] | 5.5 | activity at 30 µM [2]: 68%
14 | N#C/C(C(=O)c1ccc(Cl)c(Cl)c1)=C1\NC(=O)c2ccccc2N1 [Example 18] | 3 | activity at 30 µM [2]: 16%
15 | N#C/C(C(=O)c1cc(Cl)cc(Cl)c1)=C1\NC(=O)c2ccccc2N1 [Example 19] | 3 | activity at 30 µM [2]: 65%
16 | COc1cc(C(=O)/C(C#N)=C2/NC(=O)c3ccccc3N2)cc(OC)c1OC [Example 20] | > 30 | –
17 | N#C/C(C(=O)c1cccc2ccccc12)=C1\NC(=O)c2ccccc2N1 [Example 21] | 20 | –
18 | Cc1cccc(C(=O)/C(C#N)=C2/NC(=O)c3ccccc3N2)c1 [Example 22] | 5 | –
19 | O=C(/C=C1/NC(=O)c2ccccc2N1)c1ccc(Cl)cc1Cl [Example 23] | 4.4 | activity at 30 µM [2]: 70%
20 | N#C/C(=C\c1ccc(Cl)cc1Cl)C1NC(=O)c2ccccc2N1 (stereo not drawn) [Example 24] | > 50 | activity at 30 µM [2]: 104%
21 | N#C/C(C(=O)c1ccc(Cl)cc1Cl)=C1\NC(=O)c2c(Cl)cccc2N1 [Example 25, 2-(5-chloro-4-oxo-3,4-dihydroquinazolin-2(1H)-ylidene)-3-(2,4-dichlorophenyl)-3-oxo-propanenitrile] | 11 | activity at 30 µM [2]: 32%; Gli3FL/Gli3R ratio [3]: altered the Gli3FL/Gli3R ratio; Shh-N-dependent Gli3FL phosphorylation [3]: reduced
22 | Cc1cccc2c1C(=O)N/C(=C(\C#N)C(=O)c1ccc(Cl)cc1Cl)N2 [Example 26] | 10 | –
23 | N#C/C(C(=O)c1ccc(Cl)cc1Cl)=C1\NC(=O)c2cc(Cl)ccc2N1 [Example 27, 2-(6-chloro-4-oxo-3,4-dihydroquinazolin-2(1H)-ylidene)-3-(2,4-dichlorophenyl)-3-oxopropanenitrile] | 6.1 | activity at 30 µM [2]: 11%; Gli3FL/Gli3R ratio [3]: altered the Gli3FL/Gli3R ratio; Shh-N-dependent Gli3FL phosphorylation [3]: reduced
24 | N#C/C(C(=O)c1ccc(Cl)cc1Cl)=C1\NC(=O)c2cc(I)ccc2N1 [Example 28] | 6 | –
25 | N#C/C(C(=O)c1ccc(Cl)cc1Cl)=C1\NC(=O)c2cc(C#CCN)ccc2N1 [Example 29] | 20 | –
26 | CC(=O)NCC#Cc1ccc2c(c1)C(=O)N/C(=C(\C#N)C(=O)c1ccc(Cl)cc1Cl)N2 [Example 30] | 30 | –
27 | N#C/C(C(=O)c1ccc(Cl)cc1Cl)=C1\NC(=O)c2ccc(I)cc2N1 [Example 32] | 12 | –
28 | COc1ccc2c(c1)N/C(=C(/C#N)C(=O)c1ccc(Cl)cc1Cl)NC2=O [Example 33] | 15 | –
29 | CS(=O)(=O)c1ccc(C(=O)Nc2ccc(Cl)c(-c3ccccn3)c2)c(Cl)c1 [GDC-0449] | – | tumor response, medulloblastoma [4]: regression of medulloblastoma; tumor response, basal cell carcinoma [5]: clinically significant response

From patent US9145376B2, “Quinazolinone inhibitors of dynein” (The Rockefeller University, priority 2011, dated 2015)
